Test system: hippocampal neurons
Experiment: Neurite outgrowth assay in cultured E18 rat hippocampal neurons (48 h, βIII-tubulin staining, Cellomics ArrayScan)
Type: cell-based
Settings: Hippocampal neuron; for activity at 0.015625 µg/mL: 15.625 ng/mL compound; for activity at 0.015625 µg/mL / activity at 0.03125 µg/mL / activity at 0.0625 µg/mL / activity at 0.125 µg/mL / activity at 0.25 µg/mL / activity at 0.5 µg/mL: 48 hours, read-out: neurite growth length (% NTL); for activity at 0.03125 µg/mL: 31.25 ng/mL compound; for activity at 0.0625 µg/mL: 62.5 ng/mL compound; for activity at 0.125 µg/mL: 125 ng/mL compound; for activity at 0.25 µg/mL: 250 ng/mL compound; for activity at 0.5 µg/mL: 500 ng/mL compound; for EC200 / EC300: 48 h, estimated using linear interpolation; for EC200: 200% effective dose, read-out: ED200%; for EC300: 300% effective dose, read-out: ED300%
Method: Pre-coating culture plates: On the day before the experiment, 96-well plates were pre-coated by plating 50 μL of poly-D-lysine solution (PDL, 0.5 mg/mL) in each well. The next morning, the plates were washed four or five times with HBSS or PBS (150 μL/rinse), then left in buffer until cell plating
Preparing the cells: A timed pregnant rat carrying E18 embryos was euthanized using an IACUC approved method. In a laminar flow hood, the embryos were removed and placed in a petri dish containing Hank's Balanced Salt Solution (HBSS) with 20 mM HEPES, pH 7.3. Pup brains were dissected (see Meberg et al., Methods cell Biol 71:111-127 (2003)) and hippocampi were collected in 15 mL a conical tube containing Hibernate E with SM1 (2% v/v).
Dissociation media was prepared by combining 4.5 mL of Hibernate E (without SM1) with 0.5 mL of trypsin and 100 μl of DNAse solution. The medium over the hippocampi was carefully removed and replaced with dissociation solution, then incubated at 37° C. for 15-20 minutes, occasionally swirling the tube.
Using flame polished cotton plugged Pasteur pipettes, the dissociation media was removed, and then 5 mL of Hibernate E containing SM1 were added. The tube was swirled to thoroughly wash the tissue. The tissue was allowed to settle to the bottom of the tube, and the rinse solution was carefully removed. This step was repeated 5 times to dilute out trypsin and DNAse and remove any debris from lysed cells.
The final rinse media was removed from the tube and 1 pipette-full (1-2 mL) of Hibernate E with SM1 was added. Using the flame-polished Pasteur pipette (pre-wetted with rinse media), the tube was triturated until all cells had dissociated and no visible chunks of tissue remained. Fewer than ten triturations were typically performed. The volume was adjusted to 8-12 mL using Hibernate E containing SM1, the well was mixed and cell concentration was determined.
Plating: The cells were diluted in culture media (NbActiv4 Cell-culture media) to a final concentration of 10,000 cells/mL. The HBSS was aspirated from PDL coated plates, and 150 μL of cell solution was loaded in the middle 48 wells at 1500 cells per well. Water was loaded in the outer wells to decrease evaporation from edge wells. Cells were allowed to adhere for 2 hours in tissue culture incubator prior to treatment.
Treatment: Compounds were diluted to various concentrations to provide 6 dose response concentrations of 500 ng/mL, 250 ng/mL, 125 ng/mL, 62.5 ng/mL, 31.25 ng/mL, and 15.625 ng/mL. The plates were cultured for 48 hours, exposed to the compound at the various dose response concentrations.
Fixing the cultures: The culture medium was removed from the plates and immediately replaced with 100-200 μL of warm (37° C.) 4% paraformaldehyde (“PFA”) solution in phosphate-buffered saline (“PBS”). The cells were fixed for 15-20 minutes at room temperature, and then rinsed with PBS (200 μl/well×3).
Staining and imaging: The PBS was removed and replaced with 100 μL of blocking/permeabilization buffer (PBS, 0.2% fish gelatin, 0.03% Triton X-100, 0.02% NaN3), then incubated overnight at 4° C. To this was added 100 μL of primary antibody solution (mouse anti-Beta III tubulin in blocking buffer) and incubate overnight at 4° C. The wells were rinsed with PBS (200 μl×3), which was then removed and replaced with 100 μL of secondary antibody solution (Goat anti-mouse Alexa 488, 10 μg/ml Hoechst 33342, 0.2% fish gelatin, 0.02% azide, in PBS). The plate was shaken gently on a rotating shaker for 2 hours, then rinsed with PBS (200 μl×5).
The plate was imaged using a Cellomics ArrayScan VTI in 2 different channels for nuclear staining (Hoechst) and cell body/neurite staining (βIII-tubulin). Typically, nine fields per well were imaged with a 5× objective and automatically traced by the Neuronal Profiling Bioapplication. To get reproducible results, at least 200-300 valid neurons were measured per condition. […]

| SMILES | activity at 0.015625 µg/mL | activity at 0.03125 µg/mL | activity at 0.0625 µg/mL | activity at 0.125 µg/mL | activity at 0.25 µg/mL | activity at 0.5 µg/mL | EC200 | EC300 |
| --- | --- | --- | --- | --- | --- | --- | --- | --- |
| CCC(C)C1=N[C@@H](CCCCN2C[C@@H](CC(C)C)N(CCC3CCCCC3)C2=S)CN1 (stereo partly drawn) [Compound A13, (4R)-1-(4-((4S)-2-(sec-butyl)-4,5-dihydro-1H-imidazol-4-yl)butyl)-3-(2-cyclohexylethyl)-4-isobutylimidazolidine-2-thione] | 159% | 179% | 262% | 253% | 253% | 264% |  |  |
| CC(C)CCCN1C(=S)N(CCCC[C@H]2CNC(CCCc3ccccc3)=N2)C[C@H]1c1ccccc1 [Compound A21, (R)-3-(4-methylpentyl)-4-phenyl-1-(4-((S)-2-(3-phenylpropyl)-4,5-dihydro-1H-imidazol-4-yl)butyl)imidazolidine-2-thione] | 114% | 170% | 172% | 259% | 254% | 225% |  |  |
| CCC(C)C1=N[C@@H](CCCCN2C[C@@H](C)N(CCC3CCCCC3)C2=S)CN1 (stereo partly drawn) [Compound A4, (4R)-1-(4-((4S)-2-(sec-butyl)-4,5-dihydro-1H-imidazol-4-yl)butyl)-3-(2-cyclohexylethyl)-4-methylimidazolidine-2-thione] | 102% | 121% | 143% | 196% | 246% | 358% |  |  |
| CCC(C)C1=N[C@@H](CCCCN2C[C@@H](C)N(CC3CCC(C)CC3)C2=S)CN1 (stereo partly drawn) [Compound A7, (4R)-1-(4-((4S)-2-(sec-butyl)-4,5-dihydro-1H-imidazol-4-yl)butyl)-4-methyl-3-((4-methylcyclohexyl)methyl)imidazolidine-2-thione] | 97% | 135% | 150% | 166% | 267% | 294% |  |  |
| CCC(C)C1=N[C@@H](CCCCN2C[C@@H](CC(C)C)N(CC3CCC(C)CC3)C2=S)CN1 (stereo partly drawn) [Compound A16, (4R)-1-(4-((4S)-2-(sec-butyl)-4,5-dihydro-1H-imidazol-4-yl)butyl)-4-isobutyl-3-((4-methylcyclohexyl)methyl)imidazolidine-2-thione] | 131% | 216% | 254% | 268% | 236% | 264% | 0.01 µM | 0.053 µM |
| CC1CCC(CN2C(=S)N(CCCC[C@H]3CNC(CCCc4ccccc4)=N3)C[C@H]2c2ccccc2)CC1 (stereo partly drawn) [Compound A27, (R)-3-((4-methylcyclohexyl)methyl)-4-phenyl-1-(4-((S)-2-(3-phenylpropyl)-4,5-dihydro-1H-imidazol-4-yl)butyl)imidazolidine-2-thione] | 185% | 174% | 238% | 269% | 245% | 221% | 0.017 µM | > 0.471 µM |
| CCC(C)C1=N[C@@H](CCCCN2C[C@@H](c3ccccc3)N(CCC3CCCCC3)C2=S)CN1 (stereo partly drawn) [Compound A22, (4R)-1-(4-((4S)-2-(sec-butyl)-4,5-dihydro-1H-imidazol-4-yl)butyl)-3-(2-cyclohexylethyl)-4-phenylimidazolidine-2-thione] | 139% | 201% | 257% | 246% | 222% | 228% |  |  |
| CC(C)CCCN1C(=S)N(CCCC[C@H]2CNC(CCCc3ccccc3)=N2)C[C@H]1C [Compound A3, (R)-4-methyl-3-(4-methylpentyl)-1-(4-((S)-2-(3-phenylpropyl)-4,5-dihydro-1H-imidazol-4-yl)butyl)imidazolidine-2-thione] | 116% | 100% | 124% | 160% | 257% | 347% |  |  |

Source: US11981660B2, “Neurite outgrowth promoters and uses thereof” (UNIVERSITY OF MIAMI, priority 2018, dated 2024)
